From patent US10450327B2, “Epidithiodioxopiperazine compound or its derivatives, and the use thereof” (priority 2011, dated 2019)

Columns and labels:
PDGFRβ and PLCγ1 = assay: PDGF-induced signaling, immunoblot, PrxII knocked down HASMCs; type: cell-based, human
Experimental: The cells were rinsed with an ice-cold phosphate buffered saline (PBS) solution and then lysed in an extraction buffer solution containing 20 mM Hepes (pH 7.0), 1% Triton X-100, 150 mM NaCl, 10% glycerol, 1 mM EDTA, 2 mM EGTA, 1 mM DTT, 5 mM Na3VO4, 5 mM NaF, 1 mM AEBSF, aprotinin (5 μg/ml), and leupeptin (5 μg/ml). After being centrifuged at 12,000×g, the purified cell extracts were used for immunoblotting. In order to adjust the loading, the membranes were stripped by shaking them for 30 minutes at 60° C. in 67 mM Tris (pH 6.7), 2% SDS, and 100 mM 2-mercaptoethanol solution, and reprobed with an appropriate pan antibody.
In addition, the regulatory effects of GT on the PDGFRβ- and VEGFR2-mediated signaling pathway were examined. The GT treatment in HASMCs was quite different from PDGF-induced tyrosine phosphorylation that was enhanced by the PrxII knockdown (FIG. 12a). […] Conversely, the GT treatment in HAECs restored the VEGF-dependent activation of VEGFR2 and ERK that had been diminished by the PrxII knockdown (FIG. 12b). The effects of GT in vascular cell fuction were further validated.

[1] = test system: balloon-injured rat carotid artery; assay: Balloon-injury model of rat carotid artery; type: in vivo
Experimental: Animal experiments were performed in compliance with the guidelines of Institutional Animal Care and Use Committee (IACUC) of the Ewha Womans University. Balloon injury was created using an infiltrated 2 F Fogarty balloon catheter in the left common carotid artery as follows: after the ten-week-old male Sprague-Dawley rats were anaesthetized by isoflurane gas (N2O:O2/70%:30%) inhalation, the left external carotid artery was exposed, and its branches were electrocoagulated. A catheter was pushed 1 cm in through the transverse arteriotomy of the external carotid artery, and the endothelial denudation was achieved by three passes along the common carotid artery. After the catheter was removed, the punched area was sealed and the clapped common carotid artery was opened for resuming the blood flow. Unless otherwise stated, the rats were recovered in a cage for 10 days, and subjected to histological and immunological analyses.
Rats were anesthetized, and the common carotid artery was excised after transcardiac perfusion-fixation with a heparinized saline solution containing 3.7% formaldehyde. The vessels were paraffin embedded and sectioned using a rotary microtome (Leica RM2255). Two serial tissue sections (4 μm in thickness) were obtained from the middle area of common carotid arteries, and stained with haematoxylin and eosin (HE). The luminal, internal elastic laminal, and external elastic laminal areas were measured using NIH Image v1.62. The intimal and medial areas were determined by subtracting the luminal area from the internal elastic area and subtracting the internal elastic area from the external elastic area. The values from the two serial sections for each rat were averaged for analysis.
For the in vivo injection of siRNA, a siRNA mixture specific to rat PrxII (200 nM) was premixed with a siPORT™ NeoFX™ reagent according to the instructions of the manufacturer (Ambion). Immediately after the balloon injury, the siRNA-injected mixture (200 μL) was injected through a catheter after briefly washed with Opti-MEM. After the incubation for 15 minutes, the blood flow was resumed. A siGLO-Red (Dharmacon), which is fluorescent dye-conjugated control siRNA, was used for optimizing in vivo injection efficiency. Similarly, the ETP compound (200 nM in DMSO) was injected through a catheter and incubated for 30 minutes.
Immunohistochemistry for the overoxidized 2-Cys Prxs was performed on the paraffin sections using an anti-Prx-SO2/3 antibody (1:1000 dilution). Briefly, the sections were de-waxed in xylene and rehydrated in ethanol, and subsequently the antigen retrieval was performed by boiling in a citric buffer solution (pH 6.0). After that, the sections were incubated with a primary antibody for 48 hours at 4° C. After washing three times with a phosphatebuffered saline solution, the sections were incubated with a peroxidase-conjugated secondary antibody and stained with a 3′,3′-diaminobenzidine (DAB) substrate solution. For negative staining, the Prx-502/3 antibody was blocked with the corresponding antigenic peptide (DFTFVC(SO2/3)PTEI). For indirect immunofluorescence staining, the paraffin sections were blocked with 5% normal rabbit serum (Vector Laboratories) in PBST (a PBS solution of 0.3% Triton X-100) for 1 hour at room temperature. The sections were then incubated overnight at 4° C. with the […] against rat smooth muscle α-actin (1:300 dilution) and rat CD31 (PECAM-1, 1:200 dilution). The nuclei were labeled with DAPI. After several PBST washes, the samples were incubated for 2 hours at room temperature with Alexa Fluor 568-conjugated donkey anti-mouse and Alexa Fluor 488-conjugated donkey anti-rabbit IgG antibodies. The fluorescence images were recorded on three random fields per tissue section at a screen magnification of 100× using a LSM 510 Meta confocal microscope equipped with argon and helium-neon lasers.
The paraffin sections were incubated for 10 minutes in PBS containing 0.1% Triton X-100. […]

HASMCs = type: cell-based, human; details: up to 100 nM (200 nM for A4, A7, A9)
[2] = test system: PrxII knocked down HASMCs; assay: Intracellular hydrogen peroxide (DCF fluorescence), PrxII knocked down HASMCs; type: cell-based, human; details: concentration-dependent
Experimental: First, the ability of GT to eliminate intracellular hydrogen peroxide in PrxII knocked down HASMCs and HAECs was tested. The cellular hydrogen peroxide production was monitored using an oxidant-sensitive fluorescence dye (2′,7′-dihydro-chlorofluorescein diacetate, H2DCF-DA).

[3] = test system: yeast thioredoxin (Trx) / yeast thioredoxin reductase (TR) system; assay: Peroxidase activity assay (hydrogen peroxide reduction), Trx/TR system; type: biochemical; details: 25 μM ETP compound, 30° C., NADPH oxidation at 340 nm
Experimental: The peroxidase activity assay for the epidithiodioxopiperazine derivatives according to the present invention (hereinafter, referred to as ETP compounds) was performed according to known methods [Korean Patent No. 10-0953326]. A standard peroxidase reaction for spectrophotometric assay was carried out using a 200 μl reaction mixture of 1 mM EDTA-containing 50 mM Hepes-NaOH buffer solution (pH 7.0) including 250 μM NADPH, 3 μM yeast thioredoxin (Trx), 1.5 μM yeast thioredoxin reductase (TR), 25 μM ETP compound and […] of hydrogen peroxide. For the comparison with a glutathione (GSH)-dependent peroxidase reaction, GSH (1 mM) and yeast glutathione reductase (GSH reductase; GR) (1 Unit) were added instead of yeast Trx and TR. Each reaction was initiated by adding hydrogen peroxide, and the NADPH oxidation was monitored for 12 minutes at 30° C. according to absorbance decrease at 340 nm using an Agilent UV8453 spectrophotometer (Hewlett Packard, USA). The initial reaction rate was calculated using the linear portion of the curve and expressed as the amount of NADPH oxidized per minute.
The chemical feature of the epidithiodioxopiperazine compound of the present invention or its derivatives is the intramolecular disulfide bridge present in the epidithiodioxopiperazine ring moiety. Cellular peroxidase reduces hydrogen peroxide utilizing the electrons derived from NADPH via two electron-transfer routes, that is, Trx/TR or GSH/GR, therefore, spectrophotometric assay was performed for the hydrogen peroxide-reducing activity in the presence of each system, and the results are shown in FIGS. 1 to 5.

CN1C(=O)[C@]23CC4=CC=C[C@H](O)[C@H]4N2C(=O)[C@@]1(CO)SS3 [gliotoxin]
level of PDGFRβ and PLCγ1 activation (PDGFRβ and PLCγ1): diminished to the level of stimulated control group cells
endothelial repair / reendothelialization (CD31 immunofluorescence) ([1]; local administration after balloon injury): endothelium monolayer in contact with lumen was formed
intimal hyperplasia (ratio of intima versus media, HE staining) ([1]; local administration to the lumen through catheter, 30 minutes, ETP derivatives 200 nM, 10 days recovery): notably suppressed
cell death by TUNEL staining ([1]; nanomolar range, local administration): did not induce cell death
luminal surface endothelial cells by scanning electron microscopy ([1]; rat, in vivo): spread and formed a uniform layer with tight junction
overoxidation of 2-Cys-Prx (Prx-SO2/3 immunohistochemistry) versus control group ([1]; rat, in vivo): no significant differences
proliferation and chemotactic transmigration of HASMCs in response to PDGF, enhanced by PrxII knockdown (HASMCs): gradually reduced
level of intracellular hydrogen peroxide increased by PDGF and PrxII knockdown [2]: completely canceled out
hydrogen peroxide-reducing activity in the presence of a Trx/TR system [3]: 3.72 ± 0.53 nmol/min
